Our source for the Ki and contractile activity values is patent US6544992B1, “Urotensin-II receptor antagonists” (SmithKline Beecham Corporation, priority 1999, dated 2003).

One assay concerns human and rat GPR-14. In words: Radioligand binding, [125I] h-U-II on HEK-293 cell membranes. The settings on record: radioligand binding assay; species of GPR-14 not given. The method, then: HEK-293 cell membranes containing stable cloned human and rat GPR-14 (20 ug/assay) were incubated with 200 pM [125I] h-U-II (200 Ci/mmol^−1 in the presence of increasing concentrations of test compounds in DMSO (0.1 nM to 10 uM), in a final incubation volume of 200 ul (20 mM Tris-HCl, 5 mM MgCl2). Incubation was done for 30 minutes at room temperature followed by filtration GF/B filters with Brandel cell harvester. ^125I labeled U-II binding was quantitated by gamma counting. Nonspecific binding was defined by ^125I U-II binding in the presence of 100 nM of unlabeled human U-II. Analysis of the data was performed by nonlinear least square fitting.

Another assay concerns rat-isolated aorta. The settings on record: cited from earlier work.

`O=C(NC1CCN(Cc2ccc(OCCN3CCCC3)c3ccccc23)C1)c1ccc(Cl)c(Cl)c1` (centres unmarked) [Example 13] showed a Ki in the assay with human and rat GPR-14 of 360 nM.

On to `CC(C)[C@H](NC(=O)[C@@H]1CSSC[C@H](NC(=O)[C@H](CC(=O)O)NC(=O)[C@@H]2CCCN2C(=O)[C@@H](NC(=O)[C@@H](N)CCC(=O)O)[C@@H](C)O)C(=O)N[C@@H](Cc2ccccc2)C(=O)N[C@@H](Cc2c[nH]c3ccccc23)C(=O)N[C@@H](CCCCN)C(=O)N[C@@H](Cc2ccc(O)cc2)C(=O)N1)C(=O)O` [Human Urotensin-II], for which the contractile activity result in the assay on rat-isolated aorta is listed as “most potent contractile agonist identified to date”.

The term Ki denotes the dissociation constant of the complex between target and ligand, obtained from inhibition or displacement. The low end stands for a stronger hold on the target, the high end for a looser hold on the target.
